Experimental data as given in patent US9273057B2 (Bristol-Myers Squibb Company, priority 2012, dated 2016).

Molecular target: CK2A1 (CK2α/β) (Homo sapiens, UniProt P68400)
Test: CK2 kinase assay, CK2A1 (CK2α/β)
Assay type: biochemical
Details: Table A; read-out: CK2A1 (CK2α/β) (IC50)

Sequence of CK2A1 (CK2α/β) (P68400 whole entry, species assumed): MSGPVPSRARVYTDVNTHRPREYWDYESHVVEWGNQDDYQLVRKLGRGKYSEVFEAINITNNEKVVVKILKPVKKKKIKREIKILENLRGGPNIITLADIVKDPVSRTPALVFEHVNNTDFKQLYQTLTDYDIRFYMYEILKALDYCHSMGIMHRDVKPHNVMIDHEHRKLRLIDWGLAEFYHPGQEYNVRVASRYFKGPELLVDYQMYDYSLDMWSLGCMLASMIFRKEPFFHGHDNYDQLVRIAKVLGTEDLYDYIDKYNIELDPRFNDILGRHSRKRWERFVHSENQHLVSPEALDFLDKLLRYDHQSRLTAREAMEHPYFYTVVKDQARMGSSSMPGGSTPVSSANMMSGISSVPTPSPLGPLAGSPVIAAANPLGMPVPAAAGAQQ
Sequence of CK2A1 (CK2α/β) (P67870 whole entry partner, species assumed): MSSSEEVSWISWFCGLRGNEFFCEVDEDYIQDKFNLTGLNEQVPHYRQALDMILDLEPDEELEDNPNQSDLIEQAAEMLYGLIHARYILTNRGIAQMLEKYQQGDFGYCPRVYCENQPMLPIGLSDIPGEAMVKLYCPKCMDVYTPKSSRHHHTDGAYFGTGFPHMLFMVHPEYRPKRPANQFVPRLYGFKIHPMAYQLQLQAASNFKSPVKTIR

Row | Compound | IC50 [nM]
1 | COC(=O)N1CCN(C2CN(c3cc(C#N)cc(Nc4nc(NC5CC5)c5ncc(C#N)n5n4)c3Cl)C2)CC1 [Example 153, methyl 4-(1-(2-chloro-5-cyano-3-((7-cyano-4-(cyclopropylamino)imidazo [2,1-f][1,2,4]triazin-2-yl)amino)phenyl)-3-azetidinyl)-1-piperazinecarboxylate] | 0.65
2 | N#Cc1cc(Nc2nc(NC3CC3)c3ncc(C#N)n3n2)c(Cl)c(N2CCC3(CC2)CN(CC(O)CF)C3)c1 (racemic) [Example 796, (+/−)-2-((2-chloro-5-cyano-3-(2-(3-fluoro-2-hydroxypropyl)-2,7-diazaspiro[3.5]nonan-7-yl)phenyl)amino)-4-(cyclopropylamino)imidazo[2,1-f][1,2,4]triazine-7-carbonitrile] | 1.69
3 | N#Cc1cc(Nc2nc(NC3CC3)c3ncc(C#N)n3n2)c(Cl)c(N2CCN(C(=O)CCCS(N)(=O)=O)CC2)c1 [Example 93, 4-(4-(2-chloro-5-cyano-3-((7-cyano-4-(cyclopropylamino)imidazo[2,1-f][1,2,4]triazin-2-yl)amino)phenyl)-1-piperazinyl)-4-oxo-1-butanesulfonamide] | 0.46
4 | CC(CC(C)c1cc(Cl)c(Nc2nc(NC3CC3)c3ncc(C#N)n3n2)cc1C#N)NCCC(F)(F)F (single isomer, unassigned) [Example 734, 2-[(2-chloro-5-cyano-4-{4-[(3,3,3-trifluoropropyl)amino]pentan-2-yl}phenyl)amino]-4-(cyclopropylamino) imidazo[2,1-f][1,2,4]triazine-7-carbonitrile] | 6.07
5 | COCC(=O)N1CCN(c2cc(C#N)cc(Nc3nc(NC4CC4)c4ncc(C#N)n4n3)c2Cl)CC1 [Example 77] | 0.69
6 | CO[C@@H]1CN(c2cc(C#N)cc(Nc3nc(NC4CC4)c4ncc(C#N)n4n3)c2Cl)C[C@@H]1NS(C)(=O)=O [Example 289, N-((3S,4R)-1-(2-chloro-5-cyano-3-((7-cyano-4-(cyclopropylamino)imidazo[2,1-f][1,2,4]triazin-2-yl)amino)phenyl)-4-methoxy-3-pyrrolidinyl)methanesulfonamide] | 0.59
7 | N#Cc1cc(Nc2nc(NC3CC3)c3ncc(C#N)n3n2)c(Cl)c(C2CCN(CC(F)F)CC2)c1 [Example 212, 2-(2-chloro-5-cyano-3-(1-(2,2-difluoroethyl)piperidin-4-yl)phenylamino)-4-(cyclopropylamino)imidazo[1,2-f][1,2,4]triazine-7-carbonitrile] | 0.78
8 | CS(=O)(=O)N1CCN(CC(O)c2cc(C#N)cc(Nc3nc(NC4CC4)c4ncc(C#N)n4n3)c2Cl)CC1 (centres unmarked) [Example 687, 2-((2-chloro-5-cyano-3-(1-hydroxy-2-(4-(methylsulfonyl)piperazin-1-yl)ethyl)phenyl)amino)-4-(cyclopropylamino)imidazo[2,1-f][1,2,4]triazine-7-carbonitrile] | 0.99
9 | CC(=O)N[C@H]1CCN(Cc2cc(C#N)cc(Nc3nc(NC4CC4)c4ncc(C#N)n4n3)c2Cl)C1 [Example 473, N-[(3S)-1-[(2-chloro-5-cyano-3-{[7-cyano-4-(cyclopropylamino)imidazo[2,1-f][1,2,4]triazin-2-yl]amino}phenyl)methyl]pyrrolidin-3-yl]acetamide] | 0.56
10 | COCC(=O)N1CCC(c2cc(C#N)cc(Nc3nc(NC4CC4)c4ncc(C#N)n4n3)c2Cl)CC1 [Example 227, 2-((2-chloro-5-cyano-3-(1-(methoxyacetyl)-4-piperidinyl)phenyl)amino)-4-(cyclopropylamino)imidazo[2,1-f][1,2,4]triazine-7-carbonitrile] | 0.59
11 | C[C@H](N)C(=O)N1CCC(c2cc(C#N)cc(Nc3nc(NC4CC4)c4ncc(C#N)n4n3)c2Cl)CC1 [Example 240, 2-((3-(1-L-alanyl-4-piperidinyl)-2-chloro-5-cyanophenyl)amino)-4-(cyclopropylamino)imidazo[2,1-f][1,2,4]triazine-7-carbonitrile] | 0.47
